Key:
[1] = tested on: primary cultured cerebellar neurons; assay: Measurement of uptake of BrU (transcription) in AMA-treated cerebellar neurons; format: cell-based, rat; conditions: three different concentrations of AMA
Method: (§1) First, solutions containing three different concentrations of AMA were added to culture media of Hela cells, primary cultured cortical neurons of rat embryo (E15), and primary cultured cerebellar neurons of rat. […] The AMA-induced cellular death was significant particularly in the primary cultured neurons and their half-life period was five days or more—the primary cultured neurons died obviously earlier than those that had not been treated with AMA. […] In this AMA-induced cellular death, neuronal cell death progressed very slowly as compared with low-potassium-induced apoptosis of cerebellar neurons.
A cerebral cortical tissue segregated from E17 Wistar rat embryo and a cerebellar tissue segregated from P7 Wistar rat novelborn were shredded with a razor, and treated with a phosphate buffered saline (hereinafter referred to as “PBS”; pH 7.5) containing 0.25% trypsin (Gibco) at 37° C. for 20 min, with gentle shaking every 5 min. Subsequently, the reaction was quenched by replacing the PBS with DMEM containing a 50% fetal bovine serum (hereinafter referred to as “FBS”), and DNaseI (Boehringer Mannheim) was added to a final concentration of 100 μg/ml. The tissues were segregated gently by pipetting with a blue tip. […]

Hela cells = assay: AMA-induced cellular death of Hela cells; format: cell-based; conditions: AMA-treated Hela cells
Method: as §1
The cells were treated for 5 min with 0.4% Trypan Blue solution (Invitrogen). In each experiment, 10-20 spots were randomly selected from each of the three dishes at 100× magnification. In these spots the numbers of blue-stained cells (dead cells) and non-stained cells (living cells) were counted to a total of at least 2,000.

[2] = tested on: primary cultured cortical neurons; assay: Measurement of uptake of BrU (transcription) in AMA-treated cortical neurons; format: cell-based, rat; conditions: three different concentrations of AMA
primary cultured neurons = assay: AMA-induced cellular death of primary cultured neurons (Trypan Blue cellular death assay); format: cell-based, rat
Method: as §1
A cerebral cortical tissue segregated from E17 Wistar rat embryo and a cerebellar tissue segregated from P7 Wistar rat novelborn were shredded with a razor, and treated with a phosphate buffered saline (hereinafter referred to as “PBS”; pH 7.5) containing 0.25% trypsin (Gibco) at 37° C. for 20 min, with gentle shaking every 5 min. Subsequently, the reaction was quenched by replacing the PBS with DMEM containing a 50% fetal bovine serum (hereinafter referred to as “FBS”), and DNaseI (Boehringer Mannheim) was added to a final concentration of 100 μg/ml. The tissues were segregated gently by pipetting with a blue tip. The cells were filtrated through a nylon mesh (FALCON, pore size: […]) by centrifuge for precipatation and resuspended in DMEM additionally containing 20 mM glucose, 16 mM sodium hydrogen carbonate, 4 mM glutamine, 25 μg/ml gentamicin and 10% FBS. The suspension was added into a polylysine-coated 24-well plate (Corning) and the cells were cultured so that each well has 3×10^5 cells. After 12 hours, cytosine arabinoside was added to the culture wells to a final concentration of […] in order to prevent glial cell proliferation. […]
The cells were treated for 5 min with 0.4% Trypan Blue solution (Invitrogen). […] In these spots the numbers of blue-stained cells (dead cells) and non-stained cells (living cells) were counted to a total of at least 2,000.

YAP = assay: Northern blotting of YAP expression after AMA; format: cell-based, rat; conditions: transcription stage
Method: Next, in order to clarify the molecular mechanism underlying the OP (omega process), we performed microarray analysis. Expression of genes associated with AMA-induced cellular death of cortical neurons and cerebellar neurons and expression of genes associated with low-potassium-induced apoptosis of cerebellar neuron were compared. Experiment was performed twice for each type of cellular death. This microarray analysis led to the identification of 8 genes that offered different expression levels both in apoptosis and OP, and 11 genes that offered different expression levels specifically in OP. The latter set of genes contained YAP, a transcriptional activation factor (coactivator) which is known to play a key role in p73-mediated apoptosis.
Ten micrograms of total RNA extracted from the primary cultured neurons was electrophoresed on a MOPS/formaldehyde gel. The separated RNA fragments were transferred and immobilized to Hybond-N (Pharmacia) by UV cross-linking (exposure dose=120,000 μJ/cm^2). The full-length cDNA with the 61nt insert was cleaved from pBSins61 and purified by passing it through a gel and labeled with [a32P]dCTP (Amersham) using Random Primer DNA-labeling kit (Takara). The probes labeled with 32P were reacted with a nylon film at 60° C. and allowed to stand overnight for permeation. […]

[3] = tested on: cell line and primary neurons; assay: Genome DNA analysis for DNA ladders after AMA treatment; format: cell-based; conditions: genome DNA analysis of the cell line and primary neurons after AMA treatment

CC[C@H](C)[C@@H]1NC(=O)CNC(=O)[C@@H]2Cc3c([nH]c4cc(O)ccc34)[S+]([O-])C[C@@H](NC(=O)CNC1=O)C(=O)N[C@@H](CC(N)=O)C(=O)N1C[C@H](O)C[C@H]1C(=O)N[C@@H]([C@@H](C)[C@@H](O)CO)C(=O)N2 (stereo in doubt) [AMA, α-amanitin]
transcription (uptake of BrU) [1]: suppressed transcription | cellular death (proportion of living cells) (Hela cells): induces progressive cellular death | transcription (uptake of BrU) [2]: suppressed transcription | concentration dependence of cellular death rate (primary cultured neurons; AMA 10 μg/ml to 250 μg/ml): dependent on AMA concentration | cellular death (proportion of living cells) (primary cultured neurons; AMA-treated neurons): induces progressive cellular death | time before half the population of the neural cells died (half-life period) (primary cultured neurons; neuronal cells treated with α-amanitin): ≥ 120 h | YAP expression (YAP): down-regulated YAP expression | DNA ladders [3]: no DNA ladders were observed

Reference: patent US7951928B2, “Gene encoding a protein and preventive/remedy for neurodegenerative diseases such as polyglutamine diseases by utilizing the same” (Tokyo Medical and Dental University, priority 2004, dated 2011)
